IC50 data for 26 molecules are collected here from US8288371B2, “Ortho pyrrolidine, benzyl-substituted heterocycle CCR1 antagonists for autoimmune diseases and inflammation” (Pharmacopeia, LLC, priority 2007, dated 2012).

Each structure is given as a SMILES string.

The assay concerns the target T1, human CCR1 (Homo sapiens, UniProt P32246).
T1 sequence (P32246 1-355): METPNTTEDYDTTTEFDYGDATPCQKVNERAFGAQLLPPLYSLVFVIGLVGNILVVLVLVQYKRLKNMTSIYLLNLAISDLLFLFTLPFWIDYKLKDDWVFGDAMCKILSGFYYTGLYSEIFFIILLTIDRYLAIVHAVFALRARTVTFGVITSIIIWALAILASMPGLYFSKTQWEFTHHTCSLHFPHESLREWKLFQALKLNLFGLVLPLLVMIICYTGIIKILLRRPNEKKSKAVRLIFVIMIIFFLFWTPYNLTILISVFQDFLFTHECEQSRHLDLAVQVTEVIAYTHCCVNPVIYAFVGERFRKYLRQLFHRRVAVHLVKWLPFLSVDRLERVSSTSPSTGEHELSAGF
Kind of assay: CCR1 binding protocol (SPA, [125I]-MIP-1α displacement). The conditions noted are these: cell membrane expressing human CCR1, 0.1 nM [125I]-MIP-1α, 4 hours at ambient temperature; read-out: Relative potency (IC50). The gist of the method: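 Displacement of 0.1 nM [125I]-MIP-1α (final) from membranes expressing human CCR1 was measured by scintillation proximity after 4 h at ambient temperature. Conditions: pH 7.4 Tris buffer with 0.1% BSA and MnCl, and 0.5 μg membrane per well. Compounds were tested as a 10-step ½-log series from a 10 mM DMSO stock to derive IC50.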
Broadly, the IC50 is the concentration needed to halve the response being measured. Regarding `Cc1nnc([C@H]2CCCN2C(=O)N[C@H](C)c2ccc(Cl)cc2)n1Cc1ccc(Cl)cc1` [Compound 180], the half-inhibitory concentration (IC50) is below 50 nM. For the molecule `Cc1nnc([C@H]2CCCN2C(=O)Nc2cc(C(N)=O)ccc2C(F)(F)F)n1Cc1ccc(Cl)cc1` [Compound 358], the 50% inhibitory concentration (IC50) lay within 50 to 500 nM. Turning to `O=C(NCc1ccc(C(F)(F)F)cc1)N1CCC[C@@H]1c1nnc(C(F)(F)F)n1Cc1ccc(Cl)cc1` [Compound 249], the IC50 is 500 to 5000 nM. Take `O=C(Nc1ccc(Cl)cc1F)N1CCC[C@@H]1c1nncn1Cc1ccc(Cl)cc1` [Compound 556]: the IC50 was below 50 nM.

With `Cc1nnc([C@H]2CCCN2C(=S)Nc2ccc(Cl)cc2F)n1Cc1ccc(Cl)cc1` [Compound 606], the IC50 is below 50 nM. As for `Cc1nnc([C@H]2CCCN2C(=O)Nc2ccc(Cl)cc2F)n1Cc1ccc(F)cc1` [Compound 367], the IC50 fell in the range of 50 to 500 nM. As for `CC(=O)O[C@@H]1C[C@H](c2ncnn2Cc2ccc(Cl)cc2)N(C(=O)N[C@H]2CCOc3cc(C(F)(F)F)ccc32)C1` [Compound 488], the IC50 was below 50 nM. Regarding `O=C(NC1CCc2cc(C(F)(F)F)ccc21)N1CCC[C@@H]1c1ncnn1Cc1ccc(Cl)cc1` (some centres unmarked) [Compound 86], the IC50 fell in the range of 50 to 500 nM. `CC[C@H](NC(=O)N1CCC[C@@H]1c1nc(C)nn1Cc1ccc(Cl)cc1)c1cc2ccccc2o1` [Compound 95]: the IC50 was in the range of 50 to 500 nM.

With `Cc1nnc([C@H]2CCCN2C(=O)NC2CCOCC2)n1Cc1ccc(Cl)cc1` [Compound 333], the IC50 fell in the range of 500 to 5000 nM. With `Cc1onc(-c2ccccc2Cl)c1NC(=O)N1CCC[C@@H]1c1nnc(C)n1Cc1ccc(Cl)cc1` [Compound 276] the figure was below 50 nM. For `Cc1nnc([C@H]2CCCN2C(=O)Nc2ccc(Cl)cc2S(C)(=O)=O)n1Cc1ccc(Cl)cc1` [Compound 434], the half-inhibitory concentration (IC50) was below 50 nM. Consider `CC[C@@H](NC(=O)N1CCC[C@@H]1c1nnc(C)n1Cc1ccc(Cl)cc1)c1ccc(C(F)(F)F)nc1` [Compound 458], for which the IC50 is below 50 nM. In the case of `Cc1nnc([C@H]2C[C@H](O)CN2C(=O)Nc2ccc(Cl)c(C(F)(F)F)c2)n1Cc1ccc(Cl)cc1` [Compound 437], the IC50 is below 50 nM. Take `CCc1cc(Cn2c(C)nnc2[C@H]2CCCN2C(=O)Nc2ccc(Cl)cc2F)ccc1Cl` [Compound 635]: the IC50 lay within 50 to 500 nM.

Turning to `Cc1cc(C)c(S(C)(=O)=O)cc1NC(=O)N1CCC[C@@H]1c1nnc(C)n1Cc1ccc(Cl)cc1` [Compound 361], the 50% inhibitory concentration (IC50) is below 50 nM. For `CC[C@H](NC(=O)N1CCC[C@@H]1c1nnc(C)n1Cc1ccc(Cl)cc1)c1ccc(C(F)(F)F)nc1C` [Compound 627], the IC50 is below 50 nM. Take `CC[C@H](NC(=O)N1CCC[C@@H]1c1nnc(C)n1Cc1ccc(Cl)cc1)c1c(C)noc1C` [Compound 214]: the half-maximal inhibitory concentration (IC50) is below 50 nM. Consider `Cc1nnc([C@H]2CCCN2C(=O)Nc2ccc(C(F)(F)F)cc2)n1Cc1ccc(Cl)cc1` [Compound 112], for which the IC50 lay within 50 to 500 nM. Regarding `Cc1nnc([C@H]2CCCN2/C(=N/C#N)Nc2ccc(Cl)cc2F)n1Cc1ccc(Cl)cc1` [Compound 529], the IC50 fell in the range of 50 to 500 nM.

Turning to `CC(=O)O[C@H]1C[C@H](c2nnc(C)n2Cc2ccc(Cl)cc2)N(C(=O)Nc2ccc(Cl)cc2F)C1` [Compound 481], the half-inhibitory concentration (IC50) was in the range of 500 to 5000 nM. Take `O=C(NC1CCS(=O)(=O)c2ccccc21)N1CCC[C@@H]1c1nncn1Cc1ccc(Cl)cc1` (some centres unmarked) [Compound 110]: the IC50 was below 50 nM. As to `O=C(N[C@H]1CCCc2cc(C(F)(F)F)ccc21)N1CCC[C@@H]1c1ncnn1Cc1ccc(Cl)cc1` [Compound 82], the half-maximal inhibitory concentration (IC50) was below 50 nM. Consider `Cc1nnc([C@H]2C[C@H](O)CN2C(=O)NC2CCOc3cc(C#N)ccc32)n1Cc1ccc(Cl)cc1` (some centres unmarked) [Compound 440], for which the IC50 was below 50 nM.

As for `Cc1nnc([C@H]2CCCN2C(=O)NC(C)(C)c2ccc(C(F)(F)F)cc2)n1Cc1ccc(Cl)cc1` [Compound 220], the IC50 is below 50 nM. Take `Cc1nc(C(F)(F)F)ccc1CC(=O)N1CCC[C@@H]1c1nnc(C)n1Cc1ccc(Cl)cc1` [Compound 610]: the IC50 is below 50 nM.
